Data reported in PMC5218480 (PLoS ONE, 2017).

System: MV-4-11 cells
Assay: Gene expression microarray analysis (Affymetrix PrimeView) and GSEA
Assay type: cell-based, human
Set-up: RFU PODN (11730768_x_at) / Fold change /veh PODN (11730768_x_at) / RFU LINC00158 (11744669_a_at) / Fold change /veh LINC00158 (11744669_a_at) / RFU DUSP10 (11751237_a_at) / Fold change /veh DUSP10 (11751237_a_at) / RFU ID3 (11757404_x_at) / Fold change /veh ID3 (11757404_x_at) / RFU PLEKHG5 (11737974_s_at) / Fold change /veh PLEKHG5 (11737974_s_at) / RFU LRRC4B (11730491_at) / Fold change /veh LRRC4B (11730491_at) / RFU GIMAP4 (11747438_a_at) / Fold change /veh GIMAP4 (11747438_a_at) / RFU KRT8 (11758183_x_at) / Fold change /veh KRT8 (11758183_x_at) / RFU CNN1 (11734310_a_at) / Fold change /veh CNN1 (11734310_a_at) / RFU VPS37D (11726825_at) / Fold change /veh VPS37D (11726825_at) / RFU C10orf10 (11716522_x_at) / Fold change /veh C10orf10 (11716522_x_at) / RFU KIR2DL2 /// KIR2DL4 /// KIR2DL5A /// KIR2DL5B /// KIR2DS1 /// KIR2DS2 /// KIR2DS3 /// KIR2DS4 /// KIR3DL3 /// KIR3DL3 /// KIR3DS1 (11738374_at) / Fold change /veh KIR2DL2 /// KIR2DL4 /// KIR2DL5A /// KIR2DL5B /// KIR2DS1 /// KIR2DS2 /// KIR2DS3 /// KIR2DS4 /// KIR3DL3 /// KIR3DL3 /// KIR3DS1 (11738374_at) / RFU C1QL1 (11718748_at) / Fold change /veh C1QL1 (11718748_at) / RFU TMPRSS4 (11747572_a_at) / Fold change /veh TMPRSS4 (11747572_a_at) / RFU HAMP (11756126_x_at) / Fold change /veh HAMP (11756126_x_at) / RFU RNFT2 (11725882_a_at) / Fold change /veh RNFT2 (11725882_a_at) / RFU NR4A2 (11747474_a_at) / Fold change /veh NR4A2 (11747474_a_at) / RFU ABCC12 (11746883_a_at) / Fold change /veh ABCC12 (11746883_a_at) / RFU TMEM136 (11760407_x_at) / Fold change /veh TMEM136 (11760407_x_at) / RFU CLDN22 /// WWC2 (11732394_at) / Fold change /veh CLDN22 /// WWC2 (11732394_at) / RFU HLA-DPB1 (11760878_x_at) / Fold change /veh HLA-DPB1 (11760878_x_at) / RFU SPINT1 (11716480_a_at) / Fold change /veh SPINT1 (11716480_a_at) / RFU GAP43 (11754022_s_at) / Fold change /veh GAP43 (11754022_s_at) / RFU A4GNT (11735810_at) / Fold change /veh A4GNT (11735810_at) / RFU PRB3 (11715151_x_at) / Fold change /veh PRB3 (11715151_x_at) / RFU TUBB4B (11761932_at) / Fold change /veh TUBB4B (11761932_at) / RFU CAPN14 (11732068_a_at) / Fold change /veh CAPN14 (11732068_a_at) / RFU TMCC2 (11721928_a_at) / Fold change /veh TMCC2 (11721928_a_at) / RFU IRGQ (11745062_a_at) / Fold change /veh IRGQ (11745062_a_at) / RFU FAM174B (11720279_a_at) / Fold change /veh FAM174B (11720279_a_at) / RFU TMPRSS4 (11748680_a_at) / Fold change /veh TMPRSS4 (11748680_a_at) / RFU FAM212B (11763350_a_at) / Fold change /veh FAM212B (11763350_a_at) / RFU PLEKHG5 (11743358_a_at) / Fold change /veh PLEKHG5 (11743358_a_at) / RFU ZSCAN30 (11745921_a_at) / Fold change /veh ZSCAN30 (11745921_a_at) / RFU CMKLR1 (11741424_a_at) / Fold change /veh CMKLR1 (11741424_a_at) / RFU LOC101060620 /// MAPK8IP1 (11723275_at) / Fold change /veh LOC101060620 /// MAPK8IP1 (11723275_at) / RFU SPTSSB (11747773_x_at) / Fold change /veh SPTSSB (11747773_x_at) / RFU PRSS12 (11739890_at) / Fold change /veh PRSS12 (11739890_at) / RFU BIN1 (11741810_x_at) / Fold change /veh BIN1 (11741810_x_at) / RFU WNT11 (11732464_a_at) / Fold change /veh WNT11 (11732464_a_at) / RFU C10orf10 (11716521_a_at) / Fold change /veh C10orf10 (11716521_a_at) / RFU C5orf56 (11738089_at) / Fold change /veh C5orf56 (11738089_at) / RFU CYB561 (11721691_x_at) / Fold change /veh CYB561 (11721691_x_at) / RFU ANKRD19P (11752326_a_at) / Fold change /veh ANKRD19P (11752326_a_at) / RFU OR2T12 /// OR2T33 /// OR2T8 (11738714_s_at) / Fold change /veh OR2T12 /// OR2T33 /// OR2T8 (11738714_s_at) / RFU VCAN (11748164_a_at) / Fold change /veh VCAN (11748164_a_at) / RFU JSRP1 (11732532_at) / Fold change /veh JSRP1 (11732532_at) / RFU KRTAP10-11 (11738290_x_at) / Fold change /veh KRTAP10-11 (11738290_x_at) / RFU MYO3A (11730013_a_at) / Fold change /veh MYO3A (11730013_a_at) / RFU EBF3 (11725865_a_at) / Fold change /veh EBF3 (11725865_a_at) / RFU CAMK2N1 (11719241_x_at) / Fold change /veh CAMK2N1 (11719241_x_at) / RFU C5orf56 (11738088_a_at) / Fold change /veh C5orf56 (11738088_a_at) / RFU OLFML3 (11715873_a_at) / Fold change /veh OLFML3 (11715873_a_at) / RFU LOC100653217 /// NTM (11731650_a_at) / Fold change /veh LOC100653217 /// NTM (11731650_a_at) / RFU MAPK11 (11762145_a_at) / Fold change /veh MAPK11 (11762145_a_at) / RFU FIZ1 (11724087_x_at) / Fold change /veh FIZ1 (11724087_x_at) / RFU OASL (11726364_x_at) / Fold change /veh OASL (11726364_x_at) / RFU SOX15 (11748057_x_at) / Fold change /veh SOX15 (11748057_x_at) / RFU CD79A (11719716_a_at) / Fold change /veh CD79A (11719716_a_at) / RFU HIST1H1D (11736915_at) / Fold change /veh HIST1H1D (11736915_at) / RFU CASKIN2 (11723855_a_at) / Fold change /veh CASKIN2 (11723855_a_at) / RFU LOC730098 (11760151_x_at) / Fold change /veh LOC730098 (11760151_x_at) / RFU OR4N2 (11742367_at) / Fold change /veh OR4N2 (11742367_at) / RFU PRRT2 (11749266_a_at) / Fold change /veh PRRT2 (11749266_a_at) / RFU SNX32 (11753110_a_at) / Fold change /veh SNX32 (11753110_a_at) / RFU CDHR5 (11726645_a_at) / Fold change /veh CDHR5 (11726645_a_at) / RFU RCAN1 (11760418_a_at) / Fold change /veh RCAN1 (11760418_a_at) / RFU FAM167A (11723789_a_at) / Fold change /veh FAM167A (11723789_a_at) / RFU FAM26E (11764081_at) / Fold change /veh FAM26E (11764081_at) / RFU ISYNA1 (11749810_s_at) / Fold change /veh ISYNA1 (11749810_s_at) / RFU ACY1 (11761880_at) / Fold change /veh ACY1 (11761880_at) / RFU 11764098_at / Fold change /veh 11764098_at / RFU SAMD14 (11745864_x_at) / Fold change /veh SAMD14 (11745864_x_at) / RFU NPB (11741838_a_at) / Fold change /veh NPB (11741838_a_at) / RFU TMPRSS6 (11731388_a_at) / Fold change /veh TMPRSS6 (11731388_a_at) / RFU KRTAP10-2 (11738614_at) / Fold change /veh KRTAP10-2 (11738614_at) / RFU ARHGAP8 /// PRR5-ARHGAP8 (11727945_x_at) / Fold change /veh ARHGAP8 /// PRR5-ARHGAP8 (11727945_x_at) / RFU KRTAP5-7 /// NADSYN1 (11734609_at) / Fold change /veh KRTAP5-7 /// NADSYN1 (11734609_at) / RFU RASL12 (11751679_a_at) / Fold change /veh RASL12 (11751679_a_at) / RFU CDKN2B (11736163_a_at) / Fold change /veh CDKN2B (11736163_a_at) / RFU PRF1 (11729649_at) / Fold change /veh PRF1 (11729649_at) / RFU, ZNF638 /// ZNF638-IT1 / Fold change vs veh, ZNF638 /// ZNF638-IT1 / RFU, PANK3 / Fold change vs veh, PANK3 / RFU, SH3YL1 / Fold change vs veh, SH3YL1 / RFU, ZEB2 / Fold change vs veh, ZEB2 / RFU, NRIP1 / Fold change vs veh, NRIP1 / RFU, PTTG1IP / Fold change vs veh, PTTG1IP / RFU, CAPN2 / Fold change vs veh, CAPN2 / RFU, MED14 / Fold change vs veh, MED14 / RFU, SNORA58 / Fold change vs veh, SNORA58 / RFU, C1orf63 / Fold change vs veh, C1orf63 / RFU, LRRFIP1 / Fold change vs veh, LRRFIP1 / RFU, NDUFAF7 / Fold change vs veh, NDUFAF7 / RFU, SLC12A2 / Fold change vs veh, SLC12A2 / RFU, IBTK / Fold change vs veh, IBTK / RFU, ESF1 / Fold change vs veh, ESF1 / Fold change vs veh, TMEM50B / RFU, TAOK1 / Fold change vs veh, TAOK1 / RFU, ACBD3 / Fold change vs veh, ACBD3 / RFU, TMA16 / Fold change vs veh, TMA16 / RFU, RWDD3 / Fold change vs veh, RWDD3 / RFU, BCAT1 / Fold change vs veh, BCAT1 / RFU, EDEM3 / Fold change vs veh, EDEM3 / RFU, TMEM33 / Fold change vs veh, TMEM33 / RFU, WDR75 / Fold change vs veh, WDR75 / RFU, AHCTF1 / Fold change vs veh, AHCTF1 / RFU, TFRC / Fold change vs veh, TFRC / RFU, ZDHHC17 / Fold change vs veh, ZDHHC17 / RFU, NOM1 / Fold change vs veh, NOM1 / RFU, ARL8B / Fold change vs veh, ARL8B / RFU, ZBTB11 / Fold change vs veh, ZBTB11 / RFU, TAMM41 / Fold change vs veh, TAMM41 / RFU, KIAA1704 /// LOC100996395 / Fold change vs veh, KIAA1704 /// LOC100996395 / RFU, ING1 / Fold change vs veh, ING1 / RFU, TRMT61B / Fold change vs veh, TRMT61B / RFU, FUBP3 / Fold change vs veh, FUBP3 / RFU, TP53 / Fold change vs veh, TP53 / RFU, TNKS2 / Fold change vs veh, TNKS2 / RFU, ZFP14 / Fold change vs veh, ZFP14 / RFU, ACTR2 / Fold change vs veh, ACTR2 / RFU, PPP3R1 / Fold change vs veh, PPP3R1 / RFU, PIK3R1 / Fold change vs veh, PIK3R1 / RFU, HNRNPA1 / Fold change vs veh, HNRNPA1 / RFU, RNF170 / Fold change vs veh, RNF170 / RFU, ZNF28 / Fold change vs veh, ZNF28 / RFU, RNGTT / Fold change vs veh, RNGTT / RFU, OGT / Fold change vs veh, OGT / RFU, BRD1 / Fold change vs veh, BRD1 / RFU, MARS / Fold change vs veh, MARS / RFU, ZNF655 / Fold change vs veh, ZNF655 / RFU, FAHD1 / Fold change vs veh, FAHD1 / RFU, BDP1 / Fold change vs veh, BDP1 / RFU, LRRCC1 / Fold change vs veh, LRRCC1 / RFU, ARID1A / Fold change vs veh, ARID1A / RFU, ZNF146 / Fold change vs veh, ZNF146 / RFU, ZNF330 / Fold change vs veh, ZNF330 / RFU, GPN3 / Fold change vs veh, GPN3 / RFU, C9orf123 / Fold change vs veh, C9orf123 / RFU, N4BP2L2 / Fold change vs veh, N4BP2L2 / RFU, ARFIP1 / Fold change vs veh, ARFIP1 / RFU, FAM179B / Fold change vs veh, FAM179B / RFU, BCL10 / Fold change vs veh, BCL10 / RFU, UHRF1BP1L / Fold change vs veh, UHRF1BP1L / RFU, BET1 / Fold change vs veh, BET1 / RFU, CNOT2 / Fold change vs veh, CNOT2 / RFU, ZNF268 / Fold change vs veh, ZNF268 / Fold change vs veh, ZNF507 / RFU, DGCR2 / Fold change vs veh, DGCR2 / RFU, WDSUB1 / Fold change vs veh, WDSUB1 / Fold change vs veh, HSP90B1 /// MIR3652 / RFU, ADSS / Fold change vs veh, ADSS / RFU, GK / Fold change vs veh, GK / RFU, ZNF148 / Fold change vs veh, ZNF148 / RFU, TAF9 / Fold change vs veh, TAF9 / RFU, SLC1A5 / Fold change vs veh, SLC1A5 / RFU, SLMO2 / Fold change vs veh, SLMO2 / RFU, ABCC4 / Fold change vs veh, ABCC4 / RFU, LOC101060439 /// RAP1B / Fold change vs veh, LOC101060439 /// RAP1B / RFU, RFX7 / Fold change vs veh, RFX7 / RFU, GTPBP10 / Fold change vs veh, GTPBP10 / RFU, CNEP1R1 / Fold change vs veh, CNEP1R1 / RFU, BIVM-ERCC5 /// ERCC5 / Fold change vs veh, BIVM-ERCC5 /// ERCC5 / RFU, ILF3 / Fold change vs veh, ILF3 / RFU 11762660_at / Fold change /veh 11762660_at / RFU VCAN (11757783_s_at) / Fold change /veh VCAN (11757783_s_at) / RFU DDX43 (11728927_at) / Fold change /veh DDX43 (11728927_at) / RFU KRT8 (11758188_x_at) / Fold change /veh KRT8 (11758188_x_at) / RFU NKD1 (11759106_at) / Fold change /veh NKD1 (11759106_at) / RFU SRD5A1 (11742802_a_at) / Fold change /veh SRD5A1 (11742802_a_at) / RFU TPSAB1 /// TPSB2 (11721975_s_at) / Fold change /veh TPSAB1 /// TPSB2 (11721975_s_at) / RFU GSTM3 (11746129_a_at) / Fold change /veh GSTM3 (11746129_a_at) / RFU IL23R (11737362_x_at) / Fold change /veh IL23R (11737362_x_at) / RFU TMEM51 (11727254_a_at) / Fold change /veh TMEM51 (11727254_a_at) / RFU PIWIL2 (11732686_x_at) / Fold change /veh PIWIL2 (11732686_x_at) / RFU ORM1 (11744905_x_at) / Fold change /veh ORM1 (11744905_x_at) / RFU CCDC152 (11743942_at) / Fold change /veh CCDC152 (11743942_at) / RFU ECM1 (11717891_a_at) / Fold change /veh ECM1 (11717891_a_at) / RFU IL23R (11748794_a_at) / Fold change /veh IL23R (11748794_a_at) / RFU TNFAIP8L3 (11732012_x_at) / Fold change /veh TNFAIP8L3 (11732012_x_at) / RFU MBOAT4 (11741988_at) / Fold change /veh MBOAT4 (11741988_at) / RFU 11764193_at / Fold change /veh 11764193_at / RFU TMEM53 (11763286_at) / Fold change /veh TMEM53 (11763286_at) / RFU MAGEB2 (11727129_at) / Fold change /veh MAGEB2 (11727129_at) / RFU TMEM200A (11744735_a_at) / Fold change /veh TMEM200A (11744735_a_at) / RFU CCDC152 (11751479_a_at) / Fold change /veh CCDC152 (11751479_a_at) / RFU FAM211A (11726209_a_at) / Fold change /veh FAM211A (11726209_a_at) / RFU RGS16 (11746705_a_at) / Fold change /veh RGS16 (11746705_a_at) / RFU VCAN (11755009_s_at) / Fold change /veh VCAN (11755009_s_at) / RFU RHOB (11743442_s_at) / Fold change /veh RHOB (11743442_s_at) / RFU RGS16 (11720943_a_at) / Fold change /veh RGS16 (11720943_a_at) / RFU RGS16 (11720944_at) / Fold change /veh RGS16 (11720944_at) / RFU, VPS4B / Fold change vs veh, VPS4B / RFU, CREB1 / Fold change vs veh, CREB1 / RFU, DNAJC13 / Fold change vs veh, DNAJC13 / RFU, GNAQ / Fold change vs veh, GNAQ / RFU, CDK5R1 / Fold change vs veh, CDK5R1 / RFU, ZRANB3 / Fold change vs veh, ZRANB3 / RFU, CUL4A / Fold change vs veh, CUL4A / RFU, CCNY / Fold change vs veh, CCNY / RFU, UFL1 / Fold change vs veh, UFL1 / RFU, COG3 / Fold change vs veh, COG3 / RFU, DIAPH2 / Fold change vs veh, DIAPH2 / RFU, SKA2 / Fold change vs veh, SKA2 / RFU, AFF3 / Fold change vs veh, AFF3 / RFU, LMF1 / Fold change vs veh, LMF1 / RFU, IPO11 / Fold change vs veh, IPO11 / RFU, DFFB / Fold change vs veh, DFFB / RFU, FOXP1 / Fold change vs veh, FOXP1 / RFU, CARD8 / Fold change vs veh, CARD8 / RFU, STRN3 / Fold change vs veh, STRN3 / RFU, ADK / Fold change vs veh, ADK / RFU, RASSF2 / Fold change vs veh, RASSF2 / RFU, WIPF1 / Fold change vs veh, WIPF1 / RFU, LARP1B / Fold change vs veh, LARP1B / RFU, RASA1 / Fold change vs veh, RASA1 / RFU, RB1 / Fold change vs veh, RB1 / RFU, PPFIA1 / Fold change vs veh, PPFIA1 / RFU, MAT2A / Fold change vs veh, MAT2A / RFU, CCT5 / Fold change vs veh, CCT5 / RFU, WDR92 / Fold change vs veh, WDR92 / RFU, CUX1 / Fold change vs veh, CUX1 / RFU, TTC7A / Fold change vs veh, TTC7A / RFU, TMEM135 / Fold change vs veh, TMEM135 / RFU, DEPTOR / Fold change vs veh, DEPTOR / RFU, CPM / Fold change vs veh, CPM / RFU, DNAJB6 / Fold change vs veh, DNAJB6 / RFU, CACNA2D3 / Fold change vs veh, CACNA2D3 / RFU, DTX4 / Fold change vs veh, DTX4 / RFU, TFCP2 / Fold change vs veh, TFCP2 / RFU, GMCL1 /// GMCL1P1 / Fold change vs veh, GMCL1 /// GMCL1P1 / RFU, AEBP2 / Fold change vs veh, AEBP2 / RFU, SNHG1 /// SNORD22 /// SNORD25 /// SNORD26 /// SNORD27 /// SNORD28 /// SNORD29 /// SNORD31 / Fold change vs veh, SNHG1 /// SNORD22 /// SNORD25 /// SNORD26 /// SNORD27 /// SNORD28 /// SNORD29 /// SNORD31 / Fold change (Aza/veh), C12orf56 (ProbeSet 11735607_a_at) / Fold change (ACY-1035/veh), C12orf56 (ProbeSet 11735607_a_at) / Fold change (Aza/veh), FGFR1OP (ProbeSet 11751329_s_at) / Fold change (ACY-1035/veh), FGFR1OP (ProbeSet 11751329_s_at) / Fold change (Aza/veh), VPS36 (ProbeSet 11739960_a_at) / Fold change (ACY-1035/veh), VPS36 (ProbeSet 11739960_a_at) / RFU SYPL1 (11715823_x_at) / Fold change /veh SYPL1 (11715823_x_at) / RFU IGFBP7 (11715501_s_at) / Fold change /veh IGFBP7 (11715501_s_at) / RFU REEP3 (11722064_at) / Fold change /veh REEP3 (11722064_at) / RFU IGLL1 (11728026_x_at) / Fold change /veh IGLL1 (11728026_x_at): dose or concentration left out as unconfirmed
Details: MV-4-11 cells, 48 hours

`Nc1ncn([C@@H]2O[C@H](CO)[C@@H](O)[C@H]2O)c(=O)n1` [azacitidine] was tested, and the “RFU IGFBP7 (11715501_s_at)” value was 202.56 RFU.
